# Experimental data published in ChEMBL document CHEMBL1159068, “Discovery and SAR of small molecule PAR1 antagonists” (Bioorg Med Chem Lett, 2010).
# Legend:
# [1] = target: T1, Proteinase-activated receptor 1 (Homo sapiens) (UniProt P25116); test: Antagonist activity at PAR1 expressed in CHO cells assessed as inhibition of SFLLR-induced intracellular calcium release at 10 uM; format: functional, cell-based
# T1 sequence (whole entry): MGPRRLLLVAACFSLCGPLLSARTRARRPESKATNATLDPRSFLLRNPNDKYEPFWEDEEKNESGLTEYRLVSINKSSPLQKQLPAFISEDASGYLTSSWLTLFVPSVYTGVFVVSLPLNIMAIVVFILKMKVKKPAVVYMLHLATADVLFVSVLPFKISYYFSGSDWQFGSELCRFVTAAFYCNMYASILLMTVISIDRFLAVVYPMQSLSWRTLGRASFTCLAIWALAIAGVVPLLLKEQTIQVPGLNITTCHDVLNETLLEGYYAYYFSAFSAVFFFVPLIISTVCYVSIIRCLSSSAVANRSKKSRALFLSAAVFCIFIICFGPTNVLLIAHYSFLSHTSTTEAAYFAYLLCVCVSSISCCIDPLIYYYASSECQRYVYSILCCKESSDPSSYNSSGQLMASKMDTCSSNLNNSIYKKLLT
# Platelet = test: Inhibition of SFLLR-induced aggregation in human platelets; format: functional
# [2] = Metabolic stability in human liver microsomes assessed as parent compound remaining after 60 mins; format: ADME, Microsome; settings: read-out: Stability
# [3] = Metabolic stability in rat liver microsomes assessed as parent compound remaining after 60 mins; format: ADME, Microsome; settings: read-out: Stability
# Rattus norvegicus = test: Antithrombotic activity in rat arterio-venous shunt model of thrombosis assessed as increase in occlusion time at 1.25 mg/kg, iv; format: functional
# [4] = target: T1, Proteinase-activated receptor 1 (Homo sapiens); test: Antagonist activity at PAR1 expressed in CHO cells assessed as inhibition of SFLLR-induced intracellular calcium release; format: functional, cell-based
inhibition [1],remaining at 1 h [2],remaining at 1 h [3],pKb [4],SMILES,pKb (Platelet),Activity (Rattus norvegicus)
0%,,,,CCOC(c1ccc(Cl)cc1)C(SC(C)(C)C)n1cccn1 (stereo not drawn),,
92%,,,,CCOC(c1ccccc1)C(SC(C)(C)C)n1ccnc1 (stereo not drawn),4.46,
34%,,,,CCOC(c1ccc(Cl)cc1)C(SC(C)(C)C)n1cnnc1 (stereo not drawn),,
100%,,,,CCOC(c1ccc(C(F)(F)F)cc1)C(SC(C)(C)C)n1ccnc1 (stereo not drawn),5.38,
99%,,,,CCOC(c1ccc(Cl)cc1)C(SC(C)(C)C)n1ccnc1 (stereo not drawn),5.05,
96%,,,,CCOC(c1ccc(Cl)cc1)C(SC(C)(C)C)n1cnc(Cl)c1 (stereo not drawn),4.6,
15%,59%,39%,,CCOC(c1ccc(Cl)cc1)C(n1ccnc1)[S+]([O-])C(C)(C)C (stereo not drawn),,
13%,35%,47%,,CCOC(c1ccc(Cl)cc1)C(n1ccnc1)S(=O)(=O)C(C)(C)C (stereo not drawn),,
63%,,,,CCOC(c1ccc(Cl)cc1)C(SC(C)(C)C)n1ccnc1C (stereo not drawn),,
98%,,,,CCOC(c1ccc2sccc2c1)C(SC(C)(C)C)n1ccnc1 (stereo not drawn),5.2,
76%,,,,CCCCSC(C(OCC)c1ccc(Cl)cc1)n1ccnc1 (stereo not drawn),4.58,
37%,,,,CCOC(c1ccc(C(=O)OC)cc1)C(SC(C)(C)C)n1ccnc1 (stereo not drawn),,
100%,,,,CCOC(c1ccc(Br)cc1)C(SC(C)(C)C)n1ccnc1 (stereo not drawn),5.06,
85%,74%,25%,,CCOC(c1ccc(Cl)cc1)C(OC(C)(C)C)n1ccnc1 (stereo not drawn),4.54,0%
11%,,,,CC(C)(C)SC(C(O)c1ccc(Cl)cc1)n1ccnc1 (stereo not drawn),,
95%,,,,COC(c1ccc(Cl)cc1)C(SC(C)(C)C)n1ccnc1 (stereo not drawn),5.24,
92%,,,,CCOC(c1ccc(Cl)cc1)C(SC(C)(C)C)n1cnc(C)c1 (stereo not drawn),5.36,
23%,,,,CC(C)(C)SC(C(OCc1ccccc1)c1ccc(Cl)cc1)n1ccnc1 (stereo not drawn),,
99%,,,,CCOC(c1ccc(Cl)cc1)C(SC(C)(C)C)n1cncn1 (stereo not drawn),4.64,
96%,,,,CCCOC(c1ccc(Cl)cc1)C(SC(C)(C)C)n1ccnc1 (stereo not drawn),5.01,
59%,,,,CCOC(c1ccc(Cl)cc1)C(SC(C)(C)C)n1cncc1Cl (stereo not drawn),,
33%,,,,CCCCOC(c1ccc(Cl)cc1)C(SC(C)(C)C)n1ccnc1 (stereo not drawn),,
74%,57%,3%,,CCOC(c1ccc(Cl)cc1)C(CC(C)(C)C)n1ccnc1 (stereo not drawn),4.12,
40%,,,,CCOC(c1ccc(Cl)cc1)C(SC(C)C)n1ccnc1 (stereo not drawn),,

# The next lines start with the compound.
SMILES,inhibition [1],remaining at 1 h [2],remaining at 1 h [3],pKb [4],pKb (Platelet),Activity (Rattus norvegicus)
CCOC(c1cccc(OC)c1)C(SC(C)(C)C)n1ccnc1 (stereo not drawn),76%,,,,0,
CCOC(c1ccc2c(c1)OCCO2)C(SC(C)(C)C)n1ccnc1 (stereo not drawn),88%,,,,4.79,
CCOC(c1ccc(Cl)cc1)C(SC(C)(C)C)n1cnc(C(F)(F)F)c1 (stereo not drawn),20%,,,,,
CCCOC(c1ccc(Cl)cc1)C(SC(C)(C)C)n1cnc(C)c1 (stereo not drawn),99%,28%,0%,5.51,5.71,45%
CCCOC(c1ccc(F)cc1)C(OC(C)(C)C)n1ccnc1 (stereo not drawn),18%,,,,,
CCOC(c1ccccc1[N+](=O)[O-])C(SC(C)(C)C)n1ccnc1 (stereo not drawn),33%,,,,,
CCOC(c1cccc(Cl)c1)C(SC(C)(C)C)n1cnc(C)c1 (stereo not drawn),100%,,,,4.96,
CCCOC(c1ccccc1Cl)C(SC(C)(C)C)n1cnc(C)c1 (stereo not drawn),97%,,,,5.14,
COC(c1ccc(Cl)cc1)C(SC(C)(C)C)n1cnc(C)c1 (stereo not drawn),96%,,,,4.42,
CCOC(c1ccc(C(F)(F)F)cc1)C(OC(C)(C)C)n1cnc(C)c1 (stereo not drawn),98%,,,,5.2,
CCOC(c1ccc(Cl)cc1)C(SC(C)(C)C)n1cnc(C)c1C (stereo not drawn),64%,,,,,
CCCOC(c1ccc(Cl)c(Cl)c1)C(OC(C)(C)C)n1ccnc1 (stereo not drawn),93%,,,,5.04,
CCCOC(c1ccc(Cl)cc1Cl)C(SC(C)(C)C)n1cnc(C)c1 (stereo not drawn),88%,28%,2%,,5.95,7%
CCCOC(c1ccc(Cl)c(Cl)c1)C(OC(C)(C)C)n1cnc(C)c1 (stereo not drawn),81%,23%,3%,,5.73,43%
CCOC(c1ccc(Cl)cc1Cl)C(SC(C)(C)C)n1cnc(C)c1 (stereo not drawn),93%,,,,5.84,
CCOC(c1ccc(Br)cc1)C(SC(C)(C)C)n1cnc(C)c1 (stereo not drawn),100%,,,,5.73,
CCOC(c1ccc(Cl)cc1Cl)C(OC(C)(C)C)n1cnc(C)c1 (stereo not drawn),98%,57%,3%,,5.32,0%
CCOC(c1ccc(Cl)cc1)C(SC1CCCCC1)n1ccnc1 (stereo not drawn),3%,,,,,
CCCOC(c1ccc(Br)cc1)C(SC(C)(C)C)n1cnc(C)c1 (stereo not drawn),76%,23%,0%,,5.99,0%
CCCCCSC(C(OCC)c1ccc(Cl)cc1)n1ccnc1 (stereo not drawn),19%,,,,,
CCOC(c1ccccc1Cl)C(SC(C)(C)C)n1cnc(C)c1 (stereo not drawn),100%,,,,5.21,
